Values quoted from earlier work in patent US20090221462A1, “Fragrance compositions” (priority 2005, published 2009).

Conditions: at 25° C.

pKa (cis) (cis isomer) | SMILES | pKa
3.89 | O=C(O)C=Cc1ccccc1 [cinnamic acid] | –
– | O=C(O)Cc1ccccc1 [phenylacetic acid] | 4.28
